Laboratory results taken from patent US11596633B2, “SHP2 inhibitor compositions and methods for treating cancer” (Revolution Medicines, Inc., priority 2017, dated 2023).

Tests used:
Type in all cases: cell-based
NCI-H1573 = test: 3D cell viability (CTG); conditions: Homo sapiens; NCI-H1573, KRAS G12A, 3D culture
Procedure: (§2) To evaluate cell viability in 3D culture, cells in logarithmic growth phase were plated in growth medium containing 0.65% methylcellulose at an optimum seeding density. Cells were incubated overnight prior to treatment with different concentrations of the test article. Cells were cultured for an additional seven days and cell viability assessed using the CellTiterGlo™ (CTG) reagent, according to the manufacturer's instructions. In some instances, cells were grown in 3D culture as spheroids. Briefly, 2500 cells/well were seeded in round bottom ultra-low attachment 96-well plates (Corning) in growth media supplemented with 10% fetal bovine serum and 1% penicillin/streptomycin, and allowed to form spheroids for 72 hours at 37° C. in 5% CO2. […] Following drug exposure for five days, cell viability in spheroids was determined using the CellTiter-Glo assay kit.

MIAPaCa-2 = test: 3D cell viability (CTG); conditions: Homo sapiens, MIA PaCa-2; MIAPaCa-2, KRAS G12C, 3D culture
Procedure: as §2

HPAC = test: 3D cell viability (CTG); conditions: Homo sapiens, KRAS G12D, 3D culture
Procedure: as §2

SK-LU-1 = test: 3D cell viability (CTG); conditions: Homo sapiens; SK-LU-1, KRAS G12D, 3D culture
Procedure: as §2

NCI-H727 = test: 3D cell viability (CTG); conditions: Homo sapiens; NCI-H727, KRAS G12V, 3D culture
Procedure: as §2

T84 = test: 3D cell viability (CTG); conditions: Homo sapiens; T84, KRAS G13D, 3D culture
Procedure: as §2

NCI-H1155 = test: 3D cell viability (CTG); conditions: Homo sapiens; NCI-H1155, KRAS Q61H, 3D culture
Procedure: as §2

p-ERK1/2 in H1792 cells = test: p-ERK AlphaLisa SureFire; conditions: H1792 cells (KRAS G12C)
Procedure: (§1) Cells were plated at ˜20×10^3 cells per well and following overnight incubation were washed with serum-free media. Cells were then incubated for one hour with increasing concentrations of the test article in serum-free media containing 0.2% BSA prior to termination of the assay and measurement of pERK levels in cellular lysates by AlphaLisa SureFire Ultra kit conducted according to the manufacturer's instructions.

pERK in A375 cells = test: p-ERK AlphaLisa SureFire; conditions: A375 (Class I BRAF V600E)
Procedure: as §1

pERK in Cal-12T cells = test: p-ERK AlphaLisa SureFire; conditions: Cal-12T (Class III BRAF G466V/+)
Procedure: as §1

pERK in MeWo cells = test: p-ERK AlphaLisa SureFire
Procedure: as §1

pERK in NCI-H1666 cells = test: p-ERK AlphaLisa SureFire; conditions: NCI-H1666 (Class III BRAF G466V/+)
Procedure: as §1

pERK in NCI-H508 cells = test: p-ERK AlphaLisa SureFire; conditions: NCI-H508 (Class III BRAF G596R/+)
Procedure: as §1

Cal-12T = test: 3D proliferation (CTG); conditions: Cal-12T (Class III BRAF G466V/+)
Procedure: To evaluate cell viability in 3D culture, cells in logarithmic growth phase were plated in growth medium containing 0.65% methylcellulose at an optimum seeding density. Cells were incubated overnight prior to treatment with different concentrations of the test article. Cells were cultured for an additional seven days and cell viability assessed using the CellTiterGlo™ (CTG) reagent, according to the manufacturer's instructions. In some instances, cells were grown in 3D culture as spheroids. Briefly, 2500 cells/well were seeded in round bottom ultra-low attachment 96-well plates (Corning) in growth media supplemented with 10% fetal bovine serum and 1% penicillin/streptomycin, and allowed to form spheroids for 72 hours at 37° C. in 5% CO2. […] Following drug exposure for five days, cell viability in spheroids was determined using the CellTiter-Glo assay kit. […] After one day in culture, cells were treated with the test article, which was then replenished every three days. Cells were maintained in culture for 10 days until the control wells reached confluency at which time the cells were fixed and stained with crystal violet.

SHP2 Tyr-542 and Tyr-580 = test: SHP2 tyrosine phosphorylation western blot; conditions: 5 μM, 1 hour; MEFs, HEK293, H358; EGF or PDGF stimulated
Procedure: Cells (MEFs, HEK 293E, H358) were plated in 6-well plates at a density of 750,000 cells/well in low serum (0.1% FBS) media and allowed to grow overnight. […] Cells were stimulated with 50 ng/mL of EGF or PDGF for 5 minutes, washed with cold PBS, and 150 μL of lysis buffer (Thermo #1862301) with Halt Protease/Phosphatase inhibitor (Thermo #78440) was added. Cells were scraped, transferred to a cold Eppendorf tube and vortexed for 10 seconds. Lysates were spun at 4 C for 15 min at 13,000 rpm and transferred to a new tube. Lysate protein concentration was assessed using the BCA assay. Lysates (30 μg/lane) were run on a 4-15% Tris glycine gel and transferred to a nitrocellulose membrane using the iBlot2. Western blots were performed using phospho-SHP2 antibodies from Cell Signaling Technologies; […] (#3751) and […] (#3703) were both used at 1:1000 dilution in 5% BSA in TBS. Membranes were incubated with primary antibody overnight with gentle shaking at 4 C. Beta actin antibody (Cell Signaling Technologies #8457, 1:2000) was used as a loading control. The secondary antibody (Licor IRDye 800 CW anti-rabbit) was used at a 1:20000 dilution in 5% BSA in TBS for 1 hour shaking at room temperature. Blots were visualized using the Licor Odyssey Clx Imager.

With `Nc1nc(N2CCC3(CCC[C@H]3N)CC2)cnc1Sc1ccnc(Cl)c1Cl` [Compound A] the IC50 (NCI-H1573) was 0.2 µM, the IC50 (MIAPaCa-2) was 0.3 µM and the IC50 (HPAC) was over 10 µM. For the same compound, the IC50 (SK-LU-1) was over 10 µM, the IC50 (NCI-H727) was 0.3 µM and the IC50 (T84) was over 10 µM. It also gave an IC50 (NCI-H1155) of over 10 µM.
`Cc1nc(N2CCC3(CC2)CO[C@@H](C)[C@H]3N)c(CO)nc1-c1cccc(Cl)c1Cl` [Compound B] was tested, and the “inhibition of p-ERK1/2 levels” value (p-ERK1/2 in H1792 cells) was “concentration-dependent inhibition”, the pERK levels (pERK in A375 cells) was “failed to suppress” and the pERK levels (pERK in Cal-12T cells) was “suppression”. The IC50 (pERK in MeWo cells; Homo sapiens, MeWo, 1 h, read-out: geometric mean IC50 for reduction in pERK) was 0.024 µM, the pERK (pERK in MeWo cells; MeWo (NF1 LOF)) was “suppression” and the pERK levels (pERK in NCI-H1666 cells) was “suppression”. For the same compound, the pERK levels (pERK in NCI-H508 cells) was “suppression”, the proliferation (Cal-12T) was “suppression” and the “phosphorylation levels of SHP2 Y580” value (SHP2 Tyr-542 and Tyr-580) was “decreases”.
